A short description of data set [1]: Cytotoxicity against human Raji cells assessed as cell viability at 1000 molar ratio/TPA. Format: cell-based. The conditions noted are these: read-out: Activity.
Data set [2] concerns Raji. Description: Inhibition of 12-O-tetradecanoylphorbol 13-acetate-induced Epstein-Barr virus early antigen activation in human Raji cells assessed as EA induction at 100 mol ratio relative to TPA; values are per cent of control. The conditions noted are these: human gammaherpesvirus 4.
In data set [3] the test system is Raji. As to the kind of experiment: Inhibition of 12-O-tetradecanoylphorbol 13-acetate-induced Epstein-Barr virus early antigen activation in human Raji cells assessed as EA induction at 1000 mol ratio relative to TPA; values are per cent of control. The following applies: human gammaherpesvirus 4.
Data set [4] relates to Raji. Description: Inhibition of 12-O-tetradecanoylphorbol 13-acetate-induced Epstein-Barr virus early antigen activation in human Raji cells assessed as EA induction at 500 mol ratio relative to TPA; values are per cent of control. The following applies: human gammaherpesvirus 4.
For data set [5], the system named is Raji. Description: Inhibition of 12-O-tetradecanoylphorbol 13-acetate-induced Epstein-Barr virus early antigen activation in human Raji cells assessed as EA induction at 10 mol ratio relative to TPA; values are per cent of control. The conditions noted are these: human gammaherpesvirus 4.

As for `C=C[C@]1(C)CC[C@@H]2[C@@]3(C)CC[C@@H](C)C(=C)[C@@H]3CC[C@@]2(C)O1`, in data set [1], the viability at 1000 molar ratio/TPA was found to be 70%. In addition, the level, % of control in the data set on Raji [2] stood at 77.1%; in the data set on Raji [3] it was 5.1%; with Raji [4], 38.8%; in the data set with Raji [5], 100%.

Regarding `C=C[C@]1(C)CC[C@@H]2[C@@]3(C)CCCC(C)(C)[C@@H]3CC[C@@]2(C)O1`, in data set [1], the viability at 1000 molar ratio/TPA turned out to be 70%. In addition, the level, % of control with Raji [2] worked out at 70.4%; with Raji [3], 4.3%; in the data set on Raji [4], 35.9%; in the data set with Raji [5], 100%.

In the case of `COC(=O)[C@]1(C)CCC[C@]2(C)c3ccc(C(C)(C)O)cc3C(=O)C[C@@H]12`, the viability at 1000 molar ratio/TPA in data set [1] worked out at 70%. Moreover, the level, % of control with Raji [2] is 72.9%; in the data set with Raji [3], 0%; with Raji [4] it was 28.1%; with Raji [5], 95%.

For `CC(=O)/C=C/[C@@H]1[C@@]2(C)CCCC(C)(C)[C@@H]2CC[C@@]1(C)O`, the viability at 1000 molar ratio/TPA in data set [1] was found to be 60%. The level, % of control is 68.4% with Raji [2], 0% in the data set with Raji [3], 20.7% in the data set with Raji [4] and 89.3% in the data set with Raji [5].

Turning to `CC1=C(/C=C/C(C)=C/C=C/C(C)=C/C=C/C=C(C)/C=C/C=C(C)/C=C/C2=C(C)CCCC2(C)C)C(C)(C)CCC1`, the level, % of control in the data set with Raji [2] came to 82%; with Raji [3], 9%; in the data set with Raji [4], 34%; in the data set with Raji [5] it was 100%.

As for `CC(C)c1ccc2c(c1)C(=O)C[C@H]1C(C)(C)CCC[C@]21C`, the viability at 1000 molar ratio/TPA in data set [1] was found to be 70%. The level, % of control with Raji [2] worked out at 74.7%; in the data set with Raji [3], 0%; with Raji [4], 30.2%; in the data set with Raji [5], 95%.

For `C=C1CCC[C@]2(C)c3ccc(C(C)C)cc3C(=O)C[C@@H]12`, in data set [1], the viability at 1000 molar ratio/TPA worked out at 70%. The level, % of control with Raji [2] turned out to be 75.9%; in the data set on Raji [3], 0%; in the data set on Raji [4], 31.6%; with Raji [5], 96.1%.

Take `CC(C)[C@]12C=C3CC[C@H]4[C@](C)(C(=O)O)CCC[C@]4(C)[C@]3(CC1)OO2`: the viability at 1000 molar ratio/TPA in data set [1] amounted to 70%. Moreover, the level, % of control in the data set with Raji [2] was 63.7%; with Raji [3] it was 0%; with Raji [4] it was 24.2%; in the data set with Raji [5] it was 90.5%.

Take `CC(C)c1ccc2c(c1)CC[C@H]1[C@](C)(C(=O)O)CCC[C@]1(C)O2`: the viability at 1000 molar ratio/TPA in data set [1] came out at 60%. Moreover, the level, % of control in the data set with Raji [2] stood at 85%; in the data set with Raji [3], 10.2%; in the data set on Raji [4], 52.7%; with Raji [5], 96.9%.

Regarding `CC(C)c1cc2c(cc1O)[C@@]1(C)CCC[C@@](C)(C(=O)O)[C@@H]1CC2`, in data set [1], the viability at 1000 molar ratio/TPA turned out to be 70%. For the same molecule, the level, % of control in the data set on Raji [2] stood at 66.4%; in the data set with Raji [3], 2.7%; in the data set with Raji [4], 28%; with Raji [5] it was 95.8%.

Regarding `CC(C)c1ccc2c(c1)CC[C@H]1[C@](C)(C(=O)O)CCC[C@]21C` [DEHYDROABIETIC ACID], the viability at 1000 molar ratio/TPA in data set [1] was 70%. Moreover, the level, % of control with Raji [2] was 75%; with Raji [3], 0%; in the data set with Raji [4], 30.6%; in the data set on Raji [5], 95.2%.

The record behind these values is ChEMBL document CHEMBL1142631, “Potential antitumor-promoting diterpenoids from the stem bark of Picea glehni” (J Nat Prod, 2000).
